Experimental data published in PMC7351726, “Design, synthesis, structure, in vitro cytotoxic activity evaluation and docking studies on target enzyme GSK-3β of new indirubin-3ʹ-oxime derivatives” (Scientific Reports, 2020).

Experiments:
Type in all cases: cell-based
[1] = system: SW480 cells; assay: In vitro cytotoxicity, SRB cell viability assay, SW480; conditions: Homo sapiens, 48 h, mean ± SD, triplicate
Method: (§1) For Hepatocarcinoma (HepG2), human lung carcinoma (LU-1), human colorectal adenocarcinoma (SW480) and human normal embryonic kidney (HEK-293) cell lines, the culture medium was Dulbecco’s Modified Eagle’s Medium (DMEM) (Hyclone, USA). The medium supplementation included 10% fetal bovine serum (Hyclone), 100 units/ml penicillin, and 100 μg/ml streptomycin at 37 °C in an atmosphere with 5% CO2 and 95% humidity. For the human leukemia (HL-60) cell line, the maintenance was performed in RPMI-1640 medium (Life Technologies, Inc.) supplemented with 10% heat-inactivated fetal bovine serum (Hyclone) and 100 units/ml penicillin, and 100 μg/ml streptomycin.
(§2) Cell viability assay was conducted using SRB method for HepG2, LU-1, SW480 and HEK-293 cell lines, based on the measurement of protein content. Cells were plated with 180 μl growth medium into 96-microwell plates (4 × 10^4 cells per well) and allowed to grow overnight. Test compounds at various concentrations including 20 μM; 4 μM; 0.8 μM; 0.16 μM with incubation medium were supplemented and cultivated for additional 48 h in the same conditions. Afterwards, the removal of the medium was performed and cold 20% (wt/vol) TCA was used to fix the cell monolayer attached to the wall for 1 h at 4 °C, followed by staining with 1X SRB staining solution at room temperature for 30 min and the removal of the residual dye via repeated washing with 1% (v/v) acetic acid. For OD determination at 515 nm, an ELISA Plate Reader (Bio-Rad) was utilized to analyze the protein-bound dye, which dissolved in 10 mM Tris base solution. […] The cell survival rate (SR) was calculated as SR = [(ODt − OD0)/(ODc − OD0)] × 100, where the subscript 0, t and c represent time-zero, […] and the DMSO control sample.

[2] = system: HepG2 cells; assay: In vitro cytotoxicity, SRB cell viability assay, HepG2; conditions: Homo sapiens, 48 h, mean ± SD, triplicate
Method: as §1, §2

[3] = system: HEK-293 cells; assay: In vitro cytotoxicity, SRB cell viability assay, normal kidney HEK-293; conditions: Homo sapiens, HEK293, HEK-293 normal kidney cells, 48 h, mean ± SD, triplicate
Method: as §1, §2

[4] = system: LU-1 cells; assay: In vitro cytotoxicity, SRB cell viability assay, LU-1; conditions: Homo sapiens, Lu1; LU-1, SRB, 48 h, mean ± SD, triplicate
Method: as §1, §2

[5] = system: HL-60 cells; assay: In vitro cytotoxicity, MTT assay, HL-60; conditions: Homo sapiens; HL-60, MTT, 72 h, mean ± SD, triplicate
Method: as §1
For HL-60 cell line, 5 × 10^3 cells/well were seeded in 96-multiwell plate and cultured overnight. The test compounds were serially diluted to the wells with concentrations ranging at 20 μM; 4 μM; 0.8 μM and 0.16 μM then incubated for 72 h. Thereafter, each well was added with 10 μl of MTT (5 mg/ml in 1X PBS), followed by incubation for 3 h and centrifugation at 1,500 rpm for 10 min. The media were discarded then added 150 μl DMSO to each well. Optical density was measured using a microplate reader at 540 nm.

Row | Structure (SMILES) | IC50 [1] [µM] | IC50 [2] [µM] | IC50 [3] [µM] | IC50 [4] [µM] | IC50 [5] [µM]
1 | O=C(/C=C/c1ccccc1)c1ccc(OCCn2cc(CN3C(=O)/C(=C4\Nc5ccccc5\C4=N/O)c4ccccc43)nn2)cc1O [Compound 6a] | 3.36 ± 0.64 | 3.56 ± 0.75 | 3.21 ± 0.43 | 2.26 ± 0.32 | 2.39 ± 0.46
2 | O=C1/C(=C2\Nc3ccccc3\C2=N/O)c2ccccc2N1Cc1cn(CCN2CCOCC2)nn1 [Compound 6p] | 11.7 ± 0.48 | 10.6 ± 0.79 | 7.72 ± 0.42 | 8.61 ± 0.57 | 11.2 ± 1.04
3 | COc1ccccc1/C=C/C(=O)c1ccc(OCCn2cc(CN3C(=O)/C(=C4\Nc5ccccc5\C4=N/O)c4ccccc43)nn2)cc1O [Compound 6c] | 3.8 ± 0.52 | 3.38 ± 0.68 | 1.19 ± 0.12 | 2.99 ± 0.55 | 1.43 ± 0.22
4 | COc1cccc(/C=C/C(=O)c2ccc(OCCn3cc(CN4C(=O)/C(=C5\Nc6ccccc6\C5=N/O)c5ccccc54)nn3)cc2O)c1 [Compound 6d] | 4.46 ± 1.18 | 3.76 ± 0.75 | 2.01 ± 0.64 | 2.85 ± 0.74 | 3.4 ± 0.76
5 | CCCOc1ccc(/C=C/C(=O)c2ccc(OCCn3cc(CN4C(=O)/C(=C5\Nc6ccccc6\C5=N/O)c5ccccc54)nn3)cc2O)cc1 [Compound 6l] | 3.03 ± 0.11 | 3.28 ± 0.25 | 7.12 ± 0.18 | 2.07 ± 0.31 | 1.28 ± 0.16
6 | C#CCN1C(=O)/C(=C2\Nc3ccccc3\C2=N/O)c2ccccc21 [Compound 4] | 18.6 ± 0.91 | > 20 | 16.2 ± 0.33 | 19.6 ± 1.23 | 15.3 ± 0.35
7 | Cc1c2ccncc2c(C)c2c1[nH]c1ccccc12 [Ellipticine, reference compound] | 1.76 ± 0.63 | 1.93 ± 0.54 | 0.32 ± 0.03 | 2.5 ± 0.82 | 2.19 ± 1.12
8 | CCOc1ccccc1/C=C/C(=O)c1ccc(OCCn2cc(CN3C(=O)/C(=C4\Nc5ccccc5\C4=N/O)c4ccccc43)nn2)cc1O [Compound 6f] | 2.54 ± 0.25 | 2.01 ± 0.43 | 1.03 ± 0.11 | 1.3 ± 0.14 | 0.98 ± 0.12
9 | COc1ccc(/C=C/C(=O)c2ccc(OCCn3cc(CN4C(=O)/C(=C5\Nc6ccccc6\C5=N/O)c5ccccc54)nn3)cc2O)cc1 [Compound 6e] | 4.66 ± 0.92 | 4.62 ± 1.07 | 6.98 ± 0.25 | 3.28 ± 0.48 | 3.27 ± 0.37
10 | COc1cc(/C=C/C(=O)c2ccc(OCCn3cc(CN4C(=O)/C(=C5\Nc6ccccc6\C5=N/O)c5ccccc54)nn3)cc2O)cc(OC)c1OC [Compound 6b] | > 20 | > 20 | > 20 | > 20 | > 20
11 | CN(C)CCn1cc(CN2C(=O)/C(=C3\Nc4ccccc4\C3=N/O)c3ccccc32)nn1 [Compound 6m] | 14.4 ± 0.72 | 15.3 ± 0.17 | 11.9 ± 1.75 | 8.74 ± 1.06 | 16 ± 0.38
12 | CCOc1cccc(/C=C/C(=O)c2ccc(OCCn3cc(CN4C(=O)/C(=C5\Nc6ccccc6\C5=N/O)c5ccccc54)nn3)cc2O)c1 [Compound 6g] | 4.1 ± 0.57 | 5.68 ± 0.71 | 1.8 ± 0.21 | 3.96 ± 0.62 | 4.82 ± 0.46
13 | C#CCN1C(=O)/C(=C2\Nc3ccccc3C2=O)c2ccccc21 [Compound 3] | > 20 | > 20 | > 20 | > 20 | > 20
14 | CCCOc1ccccc1/C=C/C(=O)c1ccc(OCCn2cc(CN3C(=O)/C(=C4\Nc5ccccc5\C4=N/O)c4ccccc43)nn2)cc1O [Compound 6i] | 3.43 ± 0.84 | 2.28 ± 0.12 | 0.85 ± 0.05 | 2.07 ± 0.26 | 1.28 ± 0.34
15 | CCCOc1cccc(/C=C/C(=O)c2ccc(OCCn3cc(CN4C(=O)/C(=C5\Nc6ccccc6\C5=N/O)c5ccccc54)nn3)cc2O)c1 [Compound 6k] | 2.91 ± 0.13 | 2.95 ± 0.19 | 1.92 ± 0.17 | 2.5 ± 0.34 | 1.29 ± 0.14
16 | O=C1Nc2ccccc2/C1=C1/Nc2ccccc2C1=O [Compound 1, indirubin] | > 20 | > 20 | > 20 | > 20 | > 20
17 | O=C1/C(=C2\Nc3ccccc3\C2=N/O)c2ccccc2N1Cc1cn(CCn2ccnc2)nn1 [Compound 6o] | 11.2 ± 0.76 | 11.7 ± 0.26 | 5.89 ± 0.75 | 8.8 ± 0.38 | 9.39 ± 0.45
18 | CCOc1ccc(/C=C/C(=O)c2ccc(OCCn3cc(CN4C(=O)/C(=C5\Nc6ccccc6\C5=N/O)c5ccccc54)nn3)cc2O)cc1 [Compound 6h] | 14.1 ± 1.18 | 14.2 ± 1.79 | 9.74 ± 0.53 | 8.74 ± 0.55 | 6.5 ± 0.98
19 | O=C1Nc2ccccc2C1=C1Nc2ccccc2C1=NO [Compound 2, indirubin-3′-oxime, reference compound] | 15.7 ± 0.74 | 16 ± 0.62 | 14.2 ± 0.71 | 16.4 ± 1.05 | 16.5 ± 0.94
20 | O=C1/C(=C2\Nc3ccccc3\C2=N/O)c2ccccc2N1Cc1cn(CCN2CCCCC2)nn1 [Compound 6n] | 12.5 ± 0.53 | 11.7 ± 0.23 | 9.52 ± 0.07 | 10.1 ± 0.44 | 10.4 ± 0.84
